Experimental data from patent publication US12256733B2, “Antimicrobial mixture containing 4-(3-ethoxy-4-hydroxyphenyl)butan-2-one and an acid or silver-based compound, and cosmetic composition containing same” (L'OREAL, priority 2018, dated 2025).

Columns and labels:
Experiment in all cases: Synergistic antimicrobial activity as MIC, 96-well microplate, optical density at 620 nm
Type in all cases: cell-based
[1] = system: Enterococcus faecalis ATCC 33186
Text: (§1) 1] with: • MIC of A with B: minimum concentration of product A in the combination A+B which makes it possible to obtain an inhibitory effect; • MIC of B with A: minimum concentration of product B in the combination A+B which makes it possible to obtain an inhibitory effect; • MIC of A: minimum inhibitory concentration of product A alone; • MIC of B: minimum inhibitory concentration of product B alone. This formula was described for the first time in the article by F. C. Kull, P. C. Eisman, H. D. Sylwestrowka, and R. L. Mayer, Applied Microbiology 9:538-541, 1961.
The microbial strain Enterococcus faecalis ATCC 33186 and a double-concentration BHI (Brain Heart Infusion) broth liquid culture medium were used.
(§2) A 96-well microplate at an incubation temperature of 32.5° C. is used.
(§3) The incubation time of the microplate is: • from 24 to 30 h under aerobic conditions for microbial Aspergillus niger ATCC 6275; • from 18 to 24 h under aerobic conditions for Candida albicans ATCC 10231, Pseudomonas aeruginosa ATCC 9027 and Staphylococcus aureus ATCC 6538; • from 24 to 48 h under aerobic conditions for Enterococcus faecalis ATCC 33186. Tests
(§4) A 10% (weight/volume) stock solution was prepared by mixing 1 g of compound in 9 ml of aqueous 1‰ agar solution. Successive dilutions were made with the 1‰ agar solution.
(§5) 50 μl of each of the daughter solutions obtained containing compound A or B are added to the microplate wells. 100 μl of Sabouraud liquid nutrient broth inoculated at double concentration with the Aspergillus niger strain and 50 μl of aqueous 1‰ agar solution are also added thereto.
(§6) 50 μl of each of the daughter solutions obtained containing compound A and 50 μl of each of the daughter solutions obtained containing compound B are added to the microplate wells. 100 μl of Sabouraud liquid nutrient broth inoculated at double concentration with the strain Aspergillus niger are also added thereto.
(§7) A positive microbial growth control was also prepared. The positive microbial growth control corresponds to a mixture of 100 μl of aqueous 1‰ agar solution with 100 μl of Sabouraud liquid nutrient broth inoculated at double concentration with the strain Aspergillus niger in the absence of compounds A and B.
(§8) An absorbance control was performed in parallel on compounds A and B alone. This control corresponds to 100 μl of double concentration sterile Sabouraud liquid nutrient broth+100 μl of double concentration compound A or B.
(§9) In the three cases (absorbance control, growth control and test), the final volume present in each of the microplate wells is 200 μl.
(§10) The test as described above (tests, absorbance control and growth control) was performed again to test the combination A+B on the following strains Enterococcus faecalis, Staphylococcus aureus, Pseudomonas aeruginosa, Candida albicans, where appropriate.

[2] = system: Aspergillus niger ATCC 6275
Text: as §1
The microbial strain Aspergillus niger ATCC 6275, and a double-concentration Sabouraud broth liquid culture medium supplemented with polyoxyethylenated (20 OE) sorbitan monopalmitate (Tween 40 from Croda) and Phytagel© BioReagent were used (i.e. a mixture of 5 g of Phytagel+0.6 g of Tween 40+60 g of Sabouraud broth).
as §2, §3, §4, §5, §6, §7, §8, §9
(§11) In the two cases (test and control), the inoculum represents the concentration of the Aspergillus niger strain present in the final volume of the wells (200 μl) and is between 2 and 6×10^5 cfu/ml of Aspergillus niger.

[3] = system: Candida albicans ATCC 10231
Text: as §1
(§12) When the FIC index value is less than or equal to 1, it is considered that the combination of test compounds has a synergistic effect.
The microbial strain Candida albicans ATCC 10231, and a double-concentration Sabouraud broth liquid culture medium were used (i.e. a mixture of 5 g of Phytagel+0.6 g Tween 40+60 g of Sabouraud broth).
as §2, §3, §4, §5, §6, §7, §8, §9, §10

[4] = system: Staphylococcus aureus ATCC 6538
Text: as §1, §12
The microbial strain Staphylococcus aureus ATCC 6538 and a double-concentration nutrient broth liquid culture medium were used.
as §2, §3, §4, §5, §6, §7, §8, §9, §11, §10
The following results were obtained with the compound B1=trisodium salt of ethylenediaminedisuccinic acid (as an aqueous solution at 30% by weight): sold under the name Natrlquest E30 by the company Innospec Active Chemicals.

[5] = 0.0625% A alone (active material weight %)
[6] = first concentration with growth <= 25%

Compound: CCOc1cc(CCC(C)=O)ccc1O [A, 4-(3-ethoxy-4-hydroxyphenyl)butan-2-one]
- microbial growth percentage [1, 5]: 31%
- microbial growth percentage ([1]; 0.125% A alone): 36%
- microbial growth percentage ([1]; 0.25% A alone): 39%
- microbial growth percentage ([1]; 0.5% A alone): −9%
- MIC of product alone [1, 6]: 0.5%
- microbial growth percentage ([2]; 0.025% A alone (weight %)): 44%
- microbial growth percentage ([2]; 0.05% A alone): 32%
- microbial growth percentage ([2]; 0.1% A alone): 13%
- % MIC of A alone [2, 6]: 0.1%
- microbial growth percentage [3, 5]: 76%
- microbial growth percentage ([3]; 0.125% A alone): 64%
- microbial growth percentage ([3]; 0.25% A alone): 36%
- microbial growth percentage ([3]; 0.5% A alone): 5%
- % MIC of A alone [3, 6]: 0.5%
- microbial growth percentage [4, 5]: 76%
- microbial growth percentage ([4]; 0.125% A alone): 72%
- microbial growth percentage ([4]; 0.25% A alone): 71%
- microbial growth percentage ([4]; 0.5% A alone): 40%
- microbial growth percentage ([4]; 1% A alone): −23%
- % MIC of A alone [4, 6]: 1%

Compound: O=C([O-])C[C@H](NCCN[C@@H](CC(=O)[O-])C(=O)O)C(=O)[O-].[Na+].[Na+].[Na+] [B1, trisodium salt of ethylenediaminedisuccinic acid]
- microbial growth percentage ([4]; 0.0375% B1 alone): 97%
- microbial growth percentage ([4]; 0.075% B1 alone): 80%
- microbial growth percentage ([4]; 0.15% B1 alone): 66%
- microbial growth percentage ([4]; 0.3% B1 alone): 37%
- microbial growth percentage ([4]; 0.6% B1 alone): 1%
- % MIC of B1 alone [4, 6]: 0.6%

Compound: CCCCCC1C(O)CCC1CC(=O)[O-].[Na+] (stereo not drawn) [B2, sodium salt of 3-hydroxy-2-pentylcyclopentaneacetic acid]
- microbial growth percentage ([3]; 0.34% B2 alone): 43%
- microbial growth percentage ([3]; 0.68% B2 alone): 6%
- % MIC of B2 alone [3, 6]: 0.68%

Compound: O=C([O-])CNCO.[Na+] [B4, sodium hydroxymethylglycinate]
- microbial growth percentage ([1]; 0.005% B4 alone): 32%
- microbial growth percentage ([1]; 0.01% B4 alone): 11%
- % MIC of B4 alone [1, 6]: 0.1%

Compound: silver citrate hydrate [B3]
- microbial growth percentage ([2]; 0.025% B3 alone): 47%
- microbial growth percentage ([2]; 0.05% B3 alone): 40%
- microbial growth percentage ([2]; 0.1% B3 alone): 9%
- % MIC of B3 alone [2, 6]: 0.1%
